The values below come from ChEMBL document CHEMBL2016457, “Discovery of potent and orally bioavailable 17β-hydroxysteroid dehydrogenase type 3 inhibitors” (Bioorg Med Chem, 2012).

In experiment [1] the target is T1, 17-beta-hydroxysteroid dehydrogenase type 3 (Homo sapiens, UniProt P37058).
T1 sequence (P37058 whole entry): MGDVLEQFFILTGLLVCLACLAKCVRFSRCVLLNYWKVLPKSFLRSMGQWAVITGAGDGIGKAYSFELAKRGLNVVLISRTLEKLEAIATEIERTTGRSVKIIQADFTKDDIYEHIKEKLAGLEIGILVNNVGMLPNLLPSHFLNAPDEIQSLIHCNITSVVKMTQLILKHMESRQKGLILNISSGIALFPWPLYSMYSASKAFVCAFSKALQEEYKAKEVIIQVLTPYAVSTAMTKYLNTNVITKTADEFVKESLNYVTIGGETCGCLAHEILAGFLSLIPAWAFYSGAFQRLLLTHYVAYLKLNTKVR
The conditions noted are these: hela.
Description: (§1) Inhibition of human recombinant 17-beta-HSD3 expressed in human HeLa cells using androstenedione as substrate preincubated for 30 mins prior substrate addition measured after 120 mins by spectrophotometry

The target of experiment [2] is T2, Glucocorticoid receptor (Homo sapiens) (UniProt P04150).
T2 sequence (whole entry): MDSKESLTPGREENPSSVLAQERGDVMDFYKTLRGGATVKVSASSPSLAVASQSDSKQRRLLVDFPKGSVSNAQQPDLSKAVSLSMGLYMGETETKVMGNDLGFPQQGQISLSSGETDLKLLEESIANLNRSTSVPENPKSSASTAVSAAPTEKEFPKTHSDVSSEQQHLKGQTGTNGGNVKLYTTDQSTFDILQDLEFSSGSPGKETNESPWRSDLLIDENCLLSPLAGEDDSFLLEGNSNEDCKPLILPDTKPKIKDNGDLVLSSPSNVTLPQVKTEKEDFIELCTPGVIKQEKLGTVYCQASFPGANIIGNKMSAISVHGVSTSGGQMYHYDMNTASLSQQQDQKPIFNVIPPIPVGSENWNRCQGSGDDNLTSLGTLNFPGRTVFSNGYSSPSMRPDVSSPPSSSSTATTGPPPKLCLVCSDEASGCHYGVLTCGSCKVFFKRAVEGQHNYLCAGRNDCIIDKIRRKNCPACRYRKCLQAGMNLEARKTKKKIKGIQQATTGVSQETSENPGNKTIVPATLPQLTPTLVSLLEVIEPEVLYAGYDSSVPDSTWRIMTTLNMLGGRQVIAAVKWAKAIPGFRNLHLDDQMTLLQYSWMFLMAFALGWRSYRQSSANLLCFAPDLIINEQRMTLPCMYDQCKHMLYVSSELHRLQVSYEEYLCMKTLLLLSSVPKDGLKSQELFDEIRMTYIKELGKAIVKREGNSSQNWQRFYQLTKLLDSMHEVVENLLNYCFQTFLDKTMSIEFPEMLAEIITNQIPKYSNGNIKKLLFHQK
Briefly: Agonist activity at human Glucocorticoid receptor expressed in human HeLa cells assessed as DHT-induced response after 40 hrs by luciferase/beta-galactosidase-based reporter gene assay. Type of experiment: functional, cell-based.

Experiment [3] addresses T3, 17-beta-hydroxysteroid dehydrogenase type 1 (Homo sapiens) (UniProt P14061).
T3 sequence (whole entry): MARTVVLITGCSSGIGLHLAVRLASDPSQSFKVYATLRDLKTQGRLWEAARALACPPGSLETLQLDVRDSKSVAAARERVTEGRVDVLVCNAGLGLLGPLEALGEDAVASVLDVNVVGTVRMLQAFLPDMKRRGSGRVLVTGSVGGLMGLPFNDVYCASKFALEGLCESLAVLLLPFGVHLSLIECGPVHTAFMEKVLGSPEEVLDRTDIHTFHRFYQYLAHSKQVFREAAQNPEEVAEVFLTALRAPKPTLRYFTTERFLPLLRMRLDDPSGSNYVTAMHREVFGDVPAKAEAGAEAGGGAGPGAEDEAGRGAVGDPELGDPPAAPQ
The experiment in a line: Inhibition of human recombinant 17-beta-HSD1 expressed in human HeLa cells using estrone as substrate preincubated for 30 mins prior substrate addition measured after 120 mins by spectrophotometry. Type of experiment: cell-based.

The target in experiment [4] is T4, 17-beta-hydroxysteroid dehydrogenase type 2 (Homo sapiens) (UniProt P37059).
T4 sequence (whole entry): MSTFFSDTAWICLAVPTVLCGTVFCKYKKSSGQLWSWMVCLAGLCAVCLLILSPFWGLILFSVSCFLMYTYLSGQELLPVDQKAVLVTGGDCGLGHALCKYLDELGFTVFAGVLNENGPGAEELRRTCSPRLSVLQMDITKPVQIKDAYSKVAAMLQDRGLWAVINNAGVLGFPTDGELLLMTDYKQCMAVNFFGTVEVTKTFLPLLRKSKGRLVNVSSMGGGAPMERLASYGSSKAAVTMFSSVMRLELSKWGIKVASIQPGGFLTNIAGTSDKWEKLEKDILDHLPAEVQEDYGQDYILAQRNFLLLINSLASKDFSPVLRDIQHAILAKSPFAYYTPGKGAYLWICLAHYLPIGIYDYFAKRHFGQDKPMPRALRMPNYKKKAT
The experiment in a line: Inhibition of human recombinant 17-beta-HSD2 expressed in human HeLa cells using estradiol as substrate preincubated for 30 mins prior substrate addition measured after 120 mins by spectrophotometry. It counts as cell-based.

Experiment [5] addresses T5, Androgen receptor (Homo sapiens) (UniProt P10275).
T5 sequence (whole entry): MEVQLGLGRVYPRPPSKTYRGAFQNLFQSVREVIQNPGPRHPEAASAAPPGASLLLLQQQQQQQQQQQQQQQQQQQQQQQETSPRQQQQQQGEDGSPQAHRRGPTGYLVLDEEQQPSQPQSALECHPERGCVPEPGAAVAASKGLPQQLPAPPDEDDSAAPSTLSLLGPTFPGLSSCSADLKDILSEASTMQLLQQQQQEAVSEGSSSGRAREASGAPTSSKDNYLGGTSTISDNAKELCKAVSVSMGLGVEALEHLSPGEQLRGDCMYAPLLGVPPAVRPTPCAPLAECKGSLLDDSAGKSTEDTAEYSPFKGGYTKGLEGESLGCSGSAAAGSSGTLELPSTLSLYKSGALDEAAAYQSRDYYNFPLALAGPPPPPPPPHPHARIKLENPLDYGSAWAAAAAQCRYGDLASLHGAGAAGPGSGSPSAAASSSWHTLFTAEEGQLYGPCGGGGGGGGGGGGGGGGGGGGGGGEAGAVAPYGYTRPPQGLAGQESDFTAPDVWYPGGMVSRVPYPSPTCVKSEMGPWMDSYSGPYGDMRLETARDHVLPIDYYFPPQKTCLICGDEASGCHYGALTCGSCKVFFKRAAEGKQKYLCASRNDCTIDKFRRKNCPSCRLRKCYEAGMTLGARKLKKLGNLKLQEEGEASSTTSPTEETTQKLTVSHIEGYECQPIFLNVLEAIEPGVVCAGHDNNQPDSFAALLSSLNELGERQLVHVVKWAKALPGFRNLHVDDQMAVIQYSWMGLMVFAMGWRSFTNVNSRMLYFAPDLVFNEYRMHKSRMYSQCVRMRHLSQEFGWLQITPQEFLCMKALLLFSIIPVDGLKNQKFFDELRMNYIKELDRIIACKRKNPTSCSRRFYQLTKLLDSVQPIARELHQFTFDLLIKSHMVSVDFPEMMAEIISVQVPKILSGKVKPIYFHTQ
Briefly: Agonist activity at human androgen receptor expressed in human HeLa cells assessed as DHT-induced response after 40 hrs by luciferase/beta-galactosidase-based reporter gene assay. It counts as functional, cell-based. Background: A reporter such as luciferase makes a cellular process visible.

Experiment [6] concerns the target T2, Glucocorticoid receptor (Homo sapiens). The experiment in a line: Antagonist activity at human GR receptor expressed in human HeLa cells assessed as inhibition of DHT-induced response after 40 hrs by luciferase/beta-galactosidase-based reporter gene assay. Type of experiment: functional, cell-based.
Experiment [7] concerns the target T6, Estrogen receptor (Homo sapiens) (UniProt P03372).
T6 sequence (whole entry): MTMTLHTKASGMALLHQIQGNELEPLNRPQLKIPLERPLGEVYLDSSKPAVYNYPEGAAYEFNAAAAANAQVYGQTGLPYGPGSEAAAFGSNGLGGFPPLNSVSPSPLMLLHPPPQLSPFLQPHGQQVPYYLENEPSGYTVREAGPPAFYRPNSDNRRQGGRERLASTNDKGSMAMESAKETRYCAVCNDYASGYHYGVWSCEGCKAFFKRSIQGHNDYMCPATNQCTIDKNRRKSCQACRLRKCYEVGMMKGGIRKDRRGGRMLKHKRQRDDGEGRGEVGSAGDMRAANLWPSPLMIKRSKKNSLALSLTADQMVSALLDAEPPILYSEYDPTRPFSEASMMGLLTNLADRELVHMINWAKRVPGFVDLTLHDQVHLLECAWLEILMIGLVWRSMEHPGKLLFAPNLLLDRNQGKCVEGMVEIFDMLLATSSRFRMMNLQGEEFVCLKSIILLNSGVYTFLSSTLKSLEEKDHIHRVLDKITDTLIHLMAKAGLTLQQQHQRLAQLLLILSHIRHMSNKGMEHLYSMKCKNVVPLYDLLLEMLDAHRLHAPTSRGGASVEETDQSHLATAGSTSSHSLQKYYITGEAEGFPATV
Briefly: Antagonist activity at human ERalpha receptor expressed in human HeLa cells assessed as inhibition of DHT-induced response after 40 hrs by luciferase/beta-galactosidase-based reporter gene assay. It counts as functional, cell-based.

The target in experiment [8] is T6, Estrogen receptor (Homo sapiens). Briefly: Agonist activity at human Estrogen receptor ERalpha expressed in human HeLa cells assessed as DHT-induced response after 40 hrs by luciferase/beta-galactosidase-based reporter gene assay. Type of experiment: functional, cell-based.
Experiment [9] has as its target T5, Androgen receptor (Homo sapiens). The experiment in a line: Antagonist activity at human androgen receptor expressed in human HeLa cells assessed as inhibition of DHT-induced response after 40 hrs by luciferase/beta-galactosidase-based reporter gene assay. It counts as functional, cell-based.
In experiment [10] the target is T1, 17-beta-hydroxysteroid dehydrogenase type 3.
Description: as §1

The source made the active and inactive calls.

What is called IC50 is the midpoint of a concentration-inhibition curve. The low end stands for greater potency, the high end for weaker potency. With `CN1CCC(N2C(=O)/C(=C/c3ccc(O)c(Br)c3)SC2=S)CC1`, the IC50 entry in [1] is reported as “Not Active”. Further, the outcome in experiment [2], in experiment [5], in experiment [6], in experiment [7], in [8] and in experiment [9] was inactive. Besides, the inhibition entry in [3] and in experiment [4] was “inactive” each time.

In the case of `NS(=O)(=O)c1ccc(N2C(=O)O/C(=C\c3ccc(O)c(Br)c3)C2=O)cc1`, the IC50 entry in experiment [1] is recorded as “Not Active”. For the same molecule, the outcome in experiment [2], in experiment [5], in experiment [6], in [7], in experiment [8] and in experiment [9] was inactive. The inhibition result in experiment [3] and in experiment [4] was “inactive” in each case.

On to `COc1ccc(N2C(=O)O/C(=C\c3ccc(O)c(C(=O)O)c3)C2=O)cc1`, for which the IC50 entry in experiment [1] is “Not Active”. Further, the result in experiment [2], in experiment [5], in experiment [6], in experiment [7], in experiment [8] and in experiment [9] was inactive. Besides, the inhibition result in experiment [3] and in experiment [4] was “inactive” in each case.

`COc1ccc(N2C(=O)O/C(=C\c3cc(Cl)c(O)c(Cl)c3)C2=O)cc1`: in experiment [1], the IC50 entry is reported as “Not Active”. For the same molecule, the result in experiment [2], in [5], in experiment [6], in experiment [7], in [8] and in [9] was inactive. For the same molecule, the inhibition result in [3] and in [4] was “inactive” in each case.

In turn, `CN1C(=O)/C(=C/c2ccc(O)c(Br)c2)SC1=S` yielded an IC50 in experiment [10] of 890 nM. Besides, the outcome in experiment [2], in experiment [5], in experiment [6], in experiment [7], in experiment [8] and in experiment [9] was inactive. The inhibition result in experiment [3] and in [4] was “inactive” each time.

`O=C1O/C(=C\c2ccc(O)c(Br)c2)C(=O)N1c1ccc(Cl)nc1`: the IC50 in [10] was found to be 20 nM. Moreover, the outcome in experiment [2], in [5], in experiment [6], in experiment [7], in experiment [8] and in [9] was inactive. In addition, the inhibition entry in experiment [3] and in experiment [4] was “inactive” each time.

`COc1ccc(N2C(=O)C(Cc3ccc(O)c(Br)c3)SC2=S)cc1` (configuration not stated) showed an IC50 in experiment [10] of 90 nM. For the same molecule, the result in [2], in [5], in experiment [6], in experiment [7], in experiment [8] and in experiment [9] was inactive. Also, the inhibition entry in [3] and in experiment [4] was “inactive” in each case.

As for `COc1ccc(N2C(=O)/C(=C/c3cc(F)c(O)c(F)c3)OC2=S)cc1`, the IC50 in [10] was found to be 5 nM. Further, the result in [2], in experiment [5], in experiment [6], in experiment [7], in experiment [8] and in experiment [9] was inactive. Besides, the inhibition entry in [3] and in experiment [4] was “inactive” in each case.
